Test results as given in patent US10478423B2, “Substituted indazole derivatives active as kinase inhibitiors” (NERVIANO MEDICAL SCIENCES S.R.L., priority 2011, dated 2019).

Legend:
MV-4-11 cells = test: In vitro cell proliferation assay (CellTiter-Glo), MV-4-11; type: cell-based; conditions: MV4-11, human acute leukemia cells bearing FLT3-ITD mutation, 72 h
Protocol: (§1) The human acute leukemia MOLM-13 AND MV-4-11 cells, bearing a FLT3-ITD mutation, were seeded (5000 cells/well) in white 384 well-plates in complete medium (RPMI 1640 plus 10% Fetal bovine serum) and treated with compounds dissolved in 0.1% DMSO, 24 h after seeding. The cells were incubated at 37° C. and 5% CO2 and after 72 h the plates were processed using CellTiter-Glo assay (Promega) following the manufacturer's instruction.
(§2) CellTiter-Glo is a homogenous method based on the quantification of the ATP present, an indicator of metabolitically active cells. ATP was quantified using a system based on luciferase and D-luciferin resultant into light generation. The luminescent signal was proportional to the number of cells present in culture.
(§3) Briefly, 25 microL/well reagent solution were added to each well and, after 5 minutes shaking, microplates were read by Envision (PerkinElmer) luminometer. Inhibitory activity was evaluated comparing treated versus control data using Symyx Assay Explorer (Symyx Technologies Inc.) program. IC50 was calculated using sigmoidal interpolation curve.

MOLM-13 cells = test: In vitro cell proliferation assay (CellTiter-Glo), MOLM-13; type: cell-based; conditions: human acute leukemia cells bearing FLT3-ITD mutation, 72 h
Protocol: as §1, §2, §3

- IC50 (MV-4-11 cells): 5.54 µM
- IC50 (MOLM-13 cells): 3.91 µM
Compound: CN(C)c1ccc(C(=O)Nc2n[nH]c3cc(OCc4ccccc4)ccc23)cc1 [Ref. Compound]
